Results from paper PMC2375326, “In vitro evaluation of amino acid prodrugs of novel antitumour 2-(4-amino-3-methylphenyl)benzothiazoles” (British Journal of Cancer, 2002).

Columns and labels:
[1] = test system: MCF-7 (ER+) human derived breast carcinoma cells; assay: Growth inhibitory assay (MTT), MCF-7; assay type: cell-based; conditions: MCF7, ER+ MCF-7, 3 days (72 h) treatment, n=8, representative mean, ^a = biphasic dose response
Protocol: (§1) Prodrugs were prepared as 10 mM top stocks, dissolved in dimethylsulphoxide (DMSO) or sterile ddH2O, and stored at 4°C, protected from light for a maximum period of 4 weeks. MCF-7 (ER+) and MDA 468 (ER−) human derived breast carcinoma cells, cultivated at 37°C in an atmosphere of 5% CO2 in RPMI 1640 medium supplemented with 2 mM L-glutamine and 10% foetal calf serum, were routinely subcultured twice weekly to maintain continuous logarithmic growth. Cells were seeded into 96-well microtiter plates at a density of 5×10^3 per well and allowed 24 h to adhere before drugs were introduced (final concentration 0.1 nM–100 μM, n=8). Serial drug dilutions were prepared in medium immediately prior to each assay. Viable cell masses at the time of drug addition (time-zero), and following 72 h drug exposure were determined by cell-mediated 3-(4,5-dimethylthiazol-2-yl)-2,5-diphenyltetrazolium bromide (MTT) reduction. MTT was added to each well (final concentration 400 μg ml^−1) and plates were incubated at 37°C for 4 h to allow reduction of MTT by viable cell dehydrogenases to an insoluble formazan product. Well supernatants were aspirated and cellular formazan solubilised by addition of DMSO : glycine buffer (pH 10.5) (4 : 1). Cell growth as well as drug activity were determined by measuring absorbance at 550 nm using an Anthos Labtec systems plate reader.

[2] = test system: MDA 468 (ER−) human derived breast carcinoma cells; assay: Growth inhibitory assay (MTT), MDA 468; assay type: cell-based; conditions: Breast carcinoma cell, ER− MDA 468, 3 days (72 h) treatment, n=8, representative mean, ^a = biphasic dose response
Protocol: as §1

[3] = test system: CYP1A1 protein expression in HCT 116 cells; assay: Western blot of CYP1A1 protein, HCT 116 lysates; assay type: cell-based, human
Protocol: Whole cell lysates were prepared for examination of CYP1A1 protein expression from untreated MCF-7, IGROV-1 and HCT 116 cultures and following exposure of cells to compounds 1, 2, 2a, 2b, 3, 3a, 3b, 4, 4a and 4b. Following protein determination (n=3, [Bradford, 1976]) and addition of sample buffer, samples were boiled at 95°C for 5 min and solubilised proteins (50 μg) were separated by sodium dodecyl sulphate (SDS) polyacrylamide gel (10%) electrophoresis. Proteins were electroblotted to polyvinylidene difluoride (PVDF) membranes and probed for CYP1A1 protein with polyclonal antiserum specific for human CYP1A1/1A2 (Gentest Corporation). Secondary antibody was conjugated to alkaline phosphatase, and CYP1A1 was detected following brief (<10 min) incubation with bromochloroindolyl phosphate and nitro-blue tetrazolium in alkaline phosphatase buffer. Molecular weight markers and a positive control of recombinant CYP1A1 (Gentest Corporation), included in all blots, confirmed detection of 52 kDa CYP1A1 protein.

[4] = test system: K-562; assay: NCI in vitro cytotoxicity assay (SRB), K-562; assay type: cell-based; conditions: Homo sapiens, K562; 48 h exposure, sulforhodamine B assay, mean graph; read-out: Log10 GI50 (K-562) (converted)
Protocol: (§2) Cell culture and drug application procedures have been described previously ([Boyd and Paull, 1995]). Briefly, cell lines were inoculated into a series of 96-well microtiter plates, with varied seeding densities depending on growth characteristics of each cell line. Following a 24 h drug free incubation, test agents were added at five 10-fold dilutions with a maximum concentration of 100 μM. Cellular protein levels were determined after 48 h drug exposure by sulphorhodamine B colorimetry.

[5] = test system: A549/ATCC; assay: NCI in vitro cytotoxicity assay (SRB), A549/ATCC; assay type: cell-based; conditions: Homo sapiens, 48 h exposure, sulforhodamine B assay, mean graph, read-out: Log10 GI50 (A549/ATCC) (converted)
Protocol: as §2

[6] = test system: NCI-H322M; assay: NCI in vitro cytotoxicity assay (SRB), NCI-H322M; assay type: cell-based; conditions: Homo sapiens, 48 h exposure, sulforhodamine B assay, mean graph, read-out: Log10 GI50 (NCI-H322M) (converted)
Protocol: as §2

[7] = test system: NCI-460; assay: NCI in vitro cytotoxicity assay (SRB), NCI-460; assay type: cell-based; conditions: Homo sapiens, 48 h exposure, sulforhodamine B assay, mean graph, read-out: Log10 GI50 (NCI-460) (converted)
Protocol: as §2

[8] = test system: HCT-15; assay: NCI in vitro cytotoxicity assay (SRB), HCT-15; assay type: cell-based; conditions: Homo sapiens, 48 h exposure, sulforhodamine B assay, mean graph, read-out: Log10 GI50 (HCT-15) (converted)
Protocol: as §2

[9] = test system: SF-268; assay: NCI in vitro cytotoxicity assay (SRB), SF-268; assay type: cell-based; conditions: Homo sapiens, 48 h exposure, sulforhodamine B assay, mean graph, read-out: Log10 GI50 (SF-268) (converted)
Protocol: as §2

[10] = test system: SNB-19; assay: NCI in vitro cytotoxicity assay (SRB), SNB-19; assay type: cell-based; conditions: Homo sapiens, 48 h exposure, sulforhodamine B assay, mean graph, read-out: Log10 GI50 (SNB-19) (converted)
Protocol: as §2

[11] = test system: SNB-75; assay: NCI in vitro cytotoxicity assay (SRB), SNB-75; assay type: cell-based; conditions: Homo sapiens, 48 h exposure, sulforhodamine B assay, mean graph, read-out: Log10 GI50 (SNB-75) (converted)
Protocol: as §2

[12] = test system: MALME-3M; assay: NCI in vitro cytotoxicity assay (SRB), MALME-3M; assay type: cell-based; conditions: Homo sapiens, 48 h exposure, sulforhodamine B assay, mean graph, read-out: Log10 GI50 (MALME-3M) (converted)
Protocol: as §2

[13] = test system: UACC-62; assay: NCI in vitro cytotoxicity assay (SRB), UACC-62; assay type: cell-based; conditions: Homo sapiens, 48 h exposure, sulforhodamine B assay, mean graph, read-out: Log10 GI50 (UACC-62) (converted)
Protocol: as §2

[14] = test system: TK-10; assay: NCI in vitro cytotoxicity assay (SRB), TK-10; assay type: cell-based; conditions: Homo sapiens, 48 h exposure, sulforhodamine B assay, mean graph, read-out: Log10 GI50 (TK-10) (converted)
Protocol: as §2

[15] = test system: MCF7; assay: NCI in vitro cytotoxicity assay (SRB), MCF7; assay type: cell-based; conditions: Homo sapiens, 48 h exposure, sulforhodamine B assay, mean graph, read-out: Log10 GI50 (MCF7) (converted)
Protocol: as §2

[16] = test system: MDA-MB-435; assay: NCI in vitro cytotoxicity assay (SRB), MDA-MB-435; assay type: cell-based; conditions: Homo sapiens, 48 h exposure, sulforhodamine B assay, mean graph, read-out: Log10 GI50 (MDA-MB-435) (converted)
Protocol: as §2

[17] = test system: RPMI-8226; assay: NCI in vitro cytotoxicity assay (SRB), RPMI-8226; assay type: cell-based; conditions: Homo sapiens, 48 h exposure, sulforhodamine B assay, mean graph, read-out: Log10 GI50 (RPMI-8226) (converted)
Protocol: as §2

Structure (SMILES) | GI50 [1] | GI50 [2] | CYP1A1 protein expression (Western blot) [3] | GI50 [4] | GI50 [5] | GI50 [6] | GI50 [7] | GI50 [8] | GI50 [9] | GI50 [10] | GI50 [11] | GI50 [12] | GI50 [13] | GI50 [14] | GI50 [15] | GI50 [16] | GI50 [17]
Cc1cc(-c2nc3cc(F)ccc3s2)ccc1N [Compound 2, 2-(4-Amino-3-methylphenyl)-5-fluorobenzothiazole] | < 0.0001 µM | < 0.0001 µM | not induced | > 100 µM | 6.92 µM | 11 µM | < 0.01 µM | 7.94 µM | 58.9 µM | 26.3 µM | 17 µM | 91.2 µM | 57.5 µM | < 0.01 µM | < 0.01 µM | > 100 µM | –
Cc1cc(-c2nc3cc(F)ccc3s2)ccc1NC(=O)[C@@H](N)CCCCN [Compound 2b] | 0.0391 µM | 0.0577 µM | not induced | 2.29 µM | 1.7 µM | 3.09 µM | 0.0708 µM | 5.25 µM | 6.76 µM | 13.5 µM | 1.62 µM | 17.4 µM | 14.1 µM | 0.0174 µM | < 0.01 µM | 1.91 µM | 2.45 µM
